Values of other authors as cited in patent US20210292807A1, “METHOD FOR TESTING ANTIMICROBIAL SUSCEPTIBILITY” (priority 2017, published 2021).
Read-outs that look alike come from different tables or passages of the source.

Test system: Klebsiella isolates
Conditions: cited from earlier work

C[C@@H](O)[C@H]1C(=O)N2C(C(=O)O)=C(S[C@@H]3CN[C@H](C(=O)N(C)C)C3)[C@H](C)[C@H]12 [meropenem]
MIC, high-level resistance end of the collection's susceptibility phenotypes (48 Klebsiella isolates): > 256 µg/mL
MIC, highly-susceptible end of the collection's susceptibility phenotypes (48 Klebsiella isolates): < 1.006 µg/mL
Referring Lab's MIC (isolate 194, Sweden, VIM): ≥32 mg/L
Referring Lab's MIC (isolate 374, Sweden, VIM): >32 mg/L
Referring Lab's MIC (isolate 3354, Australia): ≤≤0.25 mg/L
Referring Lab's MIC (isolate 10924, Sweden, KPC): 4 mg/L
Referring Lab's MIC (isolate 18397, Australia): ≤≤0.25 mg/L
Referring Lab's MIC (isolate 43288, Australia): ≤≤0.25 mg/L
Referring Lab's MIC (isolate 43292, Australia): ≤≤0.25 mg/L
Referring Lab's MIC (isolate 43358, Australia): ≤≤0.25 mg/L
Referring Lab's MIC (isolate 43854, Australia): ≤≤0.25 mg/L
Referring Lab's MIC (isolate 44271, Australia): ≤≤0.25 mg/L
Referring Lab's MIC (isolate 51575, Sweden, ESBL): 0.064 mg/L
Referring Lab's MIC (isolate 70708, Sweden, KPC): 16 mg/L
Referring Lab's MIC (isolate 71076, Sweden, KPC): ≥32 mg/L
Referring Lab's MIC (isolate 200822, Sweden, KPC): 8 mg/L
Referring Lab's MIC (isolate 270902, England): 0.125 mg/L
Referring Lab's MIC (isolate 500638, Sweden, pAmpC): ≤0.25 mg/L
Referring Lab's MIC (isolate 515870, Sweden, ESBL): 0.125 mg/L
Referring Lab's MIC (isolate 2440606, England): ≤0.06 mg/L
Referring Lab's MIC (isolate 2880622, England): ≤0.06 mg/L
Referring Lab's MIC (isolate 2880654, England, KPC): 4 mg/L
Referring Lab's MIC (isolate 2890369, England): 1 mg/L
Referring Lab's MIC (isolate 2980639, England): 1 mg/L
Referring Lab's MIC (isolate 3000770, England, NDM-1): >32 mg/L
Referring Lab's MIC (isolate 3040820, England, pAmpC): ≤0.06 mg/L
Referring Lab's MIC (isolate 3080800, England, KPC): >32 mg/L
Referring Lab's MIC (isolate ATCC 700603, USA): ≤≤0.25 mg/L
Referring Lab's MIC (isolate ATCC BAA 1705, USA, KPC): 8 mg/L
Referring Lab's MIC (isolate ATCC BAA 1706, USA): ≤≤0.25 mg/L
Referring Lab's MIC (isolate K1, Australia, OXA-181): 64 mg/L
Referring Lab's MIC (isolate K2, Australia, OXA-181): 64 mg/L
Referring Lab's MIC (isolate K8, Australia, NDM-1): >256 mg/L
Referring Lab's MIC (isolate K14, Australia, KPC): 256 mg/L
Referring Lab's MIC (isolate K16, Australia, IMP - 4): 2 mg/L
Referring Lab's MIC (isolate K23, Australia, IMP - 4): 0.5 mg/L
Referring Lab's MIC (isolate KS1, Sri Lanka, OXA-181): 1 mg/L
Referring Lab's MIC (isolate KS2, Sri Lanka, OXA-181): ≥32 mg/L
Referring Lab's MIC (isolate KS17, Sri Lanka, OXA-181): ≥32 mg/L
Referring Lab's MIC (isolate KS23, Sri Lanka, OXA-181): ≥32 mg/L
Referring Lab's MIC (isolate N17, Sweden, NDM-1): ≥32 mg/L
